# Measurements taken from US20190151294A1, “TREATMENT OF ALCOHOLISM AND DEPRESSION AND/OR DYSPHORIC MOOD USING IBUDILAST” (MEDICINOVA, INC., priority 2016, published 2019).
# Legend:
# [1] = system: C57BL/6J mice; test: Chronic intermittent ethanol (CIE) exposure mouse model of ethanol dependence; type: in vivo
# Procedure: Briefly, mice were divided into test (ethanol dependent) and control (non-ethanol dependent) groups. Mice in the former group were exposed to chronic intermittent ethanol (CIE) vapor (16 hr/day×4 days), and then forced to abstain from alcohol for 72 hours. Mice were then permitted access to ethanol for 2 h/day for a 5-day test period. This pattern of weekly CIE exposures followed by 5-day test periods was repeated for 9 cycles. Mice in the control group were treated in the same manner, except these animals were exposed to air rather than ethanol vapors. Mice from both groups were further divided into four sub-groups with animals receiving 0 mg/Kg, 3 mg/Kg, 6 mg/Kg or 12 mg/Kg dose of ibudilast.
# In a separate study, adult male C57BL/6J mice were used to evaluate ibudilast as a therapeutic for the treatment of alcohol dependence. Two groups of mice were used for the study. Mice in the first group were trained to drink ethanol using a 2 h/day free-choice (15% v/v ethanol) drinking procedure (ethanol dependent (EtOH) mice), while mice in the second group were provided water and served a control (ethanol nondependent (CTL)) mice. Both the ethanol dependent and ethanol non-dependent groups had equal number of mice (N=37-38/group).
# Mice in the alcohol dependent group were then exposed to chronic intermittent ethanol (CIE) vapors for 16 hr/day over four days. After a 72 hours forced abstinence period, the ethanol dependent mice were again permitted access to ethanol for 2 hours each day over a 5 consecutive test days. This pattern of chronic intermittent ethanol vapor exposure for four consecutive days followed by forced abstinence and a five day ethanol access test period was repeated for 9 cycles. Mice in the control (CTL) group were treated in a similar manner except that air was used in the inhalation chambers in place of ethanol vapors.
# Both control and ethanol dependent mice received subcutaneous (s.c.) injections of the vehicle at 9 hours and 1 hour prior to the start of daily drinking sessions during Test Cycles 4, 5 and 6 to acclimate the animals to handling and administration of injections.
# At the end of test cycle 6, mice in the ethanol dependent group and the control group were separated into four sub-groups with animals receiving one of four doses of ibudilast—0 mg/Kg, 3 mg/Kg, 6 mg/Kg or 12 mg/Kg during Test Cycles 7 and 8. Each sub-group contained 9-10 mice (N=9-10/group). The dose of ibudilast was increased during Test Cycle 9 with ethanol dependent and control mice receiving one of the following four doses of ibudilast—0 mg/Kg, 6 mg/Kg, 12 mg/Kg, or 18 mg/Kg. Thus, mice previously receiving a dose of […] were administered ibudilast at a dose of 18 mg/Kg during Test Cycle 9.
# [2] = system: non-treatment-seeking individuals with AUD; test: Phase 1b study: cue reactivity assessment (CR); type: in vivo, human; conditions: 50 mg BID
# Source text: The present study also assessed the reactivity of participants to alcohol cues at each dose of medication such that participants served as their own controls. […] The CR assessments followed well-established procedures and participants received standardized instructions about the assessment as they became acclimated to the psychophysiological monitors.
# CR assessment sessions began with a 3-minute relaxation period, in which participants were asked to sit quietly and do nothing. Participants then held and smelled a glass of water for 3 minutes as a standard procedure to control for the effects of simple exposure to any potable liquid, followed by a second 3-minute relaxation period. Next, each participant held and smelled a glass of their preferred alcoholic beverage for three minutes. During each trial, the participant was asked to sniff the beverage for 5 consecutive seconds upon hearing a tone sound. Thirteen tone sounds were administered during each 3-minute block of time. […]
# Following each 3 minute exposure to alcohol, each participant rated his/her urge to drink alcohol using the 11-point Likert scale (e.g., “none at all” to “extremely strong urge”). Heart rate (beats per minute; BPM) and blood pressure (systolic, diastolic, and mean arterial pressure [MAP]) were monitored continuously using a Dynamap Adult Vital Signs Monitor and values were averaged over each 3-minute trial. […]
# [3] = system: non-treatment-seeking individuals with AUD; test: Phase 1b study: intravenous alcohol administration (IV-A) challenge, with post-hoc BDI analysis; type: in vivo, human; conditions: for Response to Alcohol Challenge (alcohol-induced stimulation, positive affect, negative affect, liking, wanting): post-hoc, subjects with higher BDI scores at baseline, vs placebo and vs lower BDI subjects
# Procedure: Infusion was performed by the study nurse under the supervision of the study physician using a 6% alcohol IV infusion. An alcohol infusion nomogram provides a formula for obtaining the rate of infusion based on the participant's gender and weight. Thus, male participants' were infused at a rate determined by the following formula: 0.166-ml/minute×weight in kilogram while the rate of infusion for female participants was calculated as 0.126-ml/minute×weight in kilograms.
# Breath alcohol content (BrAC) was monitored every 3 to 5 minutes during infusion until target BrAC's of 0.02 g·dl, 0.04 g·dl, 0.06 g·dl, and 0.08 g·dl were obtained, following which infusion rates were reduced to half the original rate to maintain stable BrAC levels during the testing phase. The following parameters were assessed prior to intravenous alcohol challenge and again at each target BrAC: (1) Biphasic Alcohol Effects Scale (BAES) to obtain a reliable and valid measure of alcohol's stimulant and sedative effects; (2) Alcohol Urge Questionnaire (AUQ)—an 8-item scale where subjects rate their craving for alcohol at the present moment, which is appropriate for examining the level of the urge to drink alcohol; (3) Alcohol Ratings Scale, which captures “liking” and “wanting” of alcohol”; (4) The Profile of Mood States (POMS; McNair 1971) which was used to record positive and negative mood states; and (5) Heart Rate and Blood Pressure levels measure at baseline and at each target level of BrAC.
# To probe the possible relationship between MN-166, mood, and subjective responses to alcohol, further analysis was performed. The following variables were explored in all participants: • 1. Baseline scores for depressive symptomology (as measured by the Beck Depression Inventory (BDI)) were collected. • 2. Responses to Alcohol Challenge (e.g., alcohol-induced stimulation, positive affect, negative affect, “liking,” and “wanting”) were compared between subjects with higher BDI scores (more depressive symptomology) and dysphoria and subjects with lower BDI scores (less depressive symptomology) and dysphoria.
structure (smiles),measurement,setting,value
"CC(C)C(=O)c1c(C(C)C)nn2ccccc12 [ibudilast, Ibudilast]",ethanol intake of alcohol dependent mice vs control group counterparts,"[1]; 6 mg, Test Cycle 9, p<0.05",consumed significantly more ethanol
same,difference in ethanol intake between alcohol dependent and control mice,"[1]; 12 mg/Kg and 18 mg/Kg, Test Cycle 9",no significant difference
same,"reduction of ethanol intake, alcohol dependent vs control mice (Group x Dose interaction)","[1]; 12 mg/Kg and 18 mg/Kg, Test Cycle 9, p<0.01",more effective at reducing ethanol intake in alcohol dependent mice than control mice
same,ethanol intake,"[1]; 12 mg/Kg s.c., alcohol dependent mice, before Test Cycle 8 (FIG. 2)",reduced ethanol in alcohol dependent mice
same,ethanol consumption relative to vehicle,"[1]; 12 mg/Kg, Test Cycle 8, both alcohol dependent and control mice, p<0.05",reduced ethanol consumption to a greater extent
same,concurrent water intake,[1]; associated with decreased ethanol intake,significant increases
same,ethanol intake of test (ethanol dependent) group vs control group,[1]; at the higher doses (FIG. 2),below those for mice in the control group
same,cue-induced AUQ craving,[2]; day 6 alcohol cue-exposure,did not affect
same,positive mood during cue reactivity,[2]; p=0.07,increased positive mood
same,subjective response to alcohol during the infusion,"[3]; 50 mg BID, day 6 IV alcohol",did not affect
same,"Response to Alcohol Challenge (alcohol-induced stimulation, positive affect, negative affect, liking, wanting)",[3]; listed as MN-166,less positive and more negative responses
same,"Response to Alcohol Challenge (alcohol-induced stimulation, positive affect, negative affect, liking, wanting)",[3]; negative responses to alcohol,more negative
same,"Response to Alcohol Challenge (alcohol-induced stimulation, positive affect, negative affect, liking, wanting)",[3]; positive responses to alcohol,"less positive,"
